Reference: patent US20060030585A1, “Tricyclic delta-opioid modulators” (priority 2004, published 2006)
Like-named read-outs stand apart in the source and are kept apart here.

Experiments:
mu opioid receptor = mu opioid receptor (Rattus norvegicus, UniProt P33535); assay: Rat brain mu opioid receptor binding assay ([3H]DAMGO); conditions: Rat mu opioid receptor binding constant, rat forebrain membranes, ~0.8 nM [3H]DAMGO
Protocol: Rat Brain Mu Opioid Receptor Binding Assay
(§1) Procedure: Male, Sprague Dawley rats (150-250 g, VAF, Charles River, Kingston, N.Y.) were killed by CO2, and their brains removed and placed immediately in ice cold Tris HCl buffer (50 mM, pH 7.4). The forebrains were separated from the remainder of the brain by a coronal transection, beginning dorsally at the colliculi and passing ventrally through the midbrain-pontine junction. After dissection, the forebrains were homogenized in Tris buffer in a Teflon®-glass homogenizer. The homogenate was diluted to a concentration of 1 g of forebrain tissue per 80 mL Tris and centrifuged at 39,000×g for 10 min. The pellet was resuspended in the same volume of Tris buffer containing 5 mM MgCl2 with several brief pulses from a Polytron homogenizer. This particulate preparation was used for the delta opioid binding assays.
(§2) Analysis: The data from the scintillation counter were used to calculate either the % inhibition compared to control binding (when only a single concentration of test compound was evaluated) or a Ki value (when a range of concentrations tested). Percent inhibition was calculated as: [(total dpm-test compound dpm)/(total dpm-nonspecific dpm)]*100. Kd and Ki values were calculated using GraphPad PRISM data analysis program.

delta opioid receptor = delta opioid receptor (Rattus norvegicus, UniProt P33533); assay: Rat brain delta opioid receptor binding assay ([3H]DPDPE); conditions: Rat delta opioid receptor binding constant, rat forebrain membranes, ~4 nM [3H]DPDPE
Sequence of delta opioid receptor (P33533 whole entry): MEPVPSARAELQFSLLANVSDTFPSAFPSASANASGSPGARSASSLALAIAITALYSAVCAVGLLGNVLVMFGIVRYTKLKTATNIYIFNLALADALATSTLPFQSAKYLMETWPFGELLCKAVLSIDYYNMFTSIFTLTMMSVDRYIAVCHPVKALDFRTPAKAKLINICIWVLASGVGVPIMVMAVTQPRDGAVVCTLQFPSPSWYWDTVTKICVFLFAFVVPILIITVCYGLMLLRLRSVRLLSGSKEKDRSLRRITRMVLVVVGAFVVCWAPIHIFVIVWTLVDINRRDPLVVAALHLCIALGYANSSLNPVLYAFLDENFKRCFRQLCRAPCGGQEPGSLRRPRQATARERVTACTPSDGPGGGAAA
Protocol: Rat Brain Delta Opioid Receptor Binding Assay
as §1, with “assays. Following incubation with the delta selective peptide ligand ˜4 nM [^3H]DPDPE at 25° C. for 2.5 h in a 96-well plate with total volume of 1 mL, the plate contents were filtered through Wallac filtermat B sheets on a Tomtec 96-well harvester. The filters were rinsed three times with 2 mL of 10 mM HEPES (pH 7.4), and dried in a 650 W microwave oven for 1.75 min twice. To each sample area 2×50 μL of Betaplate Scint scintillation fluid (LKB) was added and the radioactivity quantified on a LKB (Wallac) 1205 BetaPlate liquid scintillation counter.” for “assays.”
as §2, with “concentrations was” for “concentrations”

Sequence of mu opioid receptor (P33535 whole entry): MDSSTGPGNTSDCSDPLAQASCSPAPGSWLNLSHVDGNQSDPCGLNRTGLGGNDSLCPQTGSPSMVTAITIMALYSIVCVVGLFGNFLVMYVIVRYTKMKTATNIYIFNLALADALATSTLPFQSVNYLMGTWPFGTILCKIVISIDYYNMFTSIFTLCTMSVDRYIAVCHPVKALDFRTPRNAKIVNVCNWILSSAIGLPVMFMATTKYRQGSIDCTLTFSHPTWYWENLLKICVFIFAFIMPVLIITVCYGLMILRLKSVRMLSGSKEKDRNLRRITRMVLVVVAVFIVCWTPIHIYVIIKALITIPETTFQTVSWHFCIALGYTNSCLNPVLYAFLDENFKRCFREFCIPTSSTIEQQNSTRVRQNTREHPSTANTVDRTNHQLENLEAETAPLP

Row | SMILES | Ki (mu opioid receptor; MOR Ki) [nM] | Ki (delta opioid receptor; DOR Ki) [nM] | Ki (mu opioid receptor; read-out: MOR Ki) [nM] | Ki (delta opioid receptor; read-out: DOR Ki) [nM]
1 | c1ccc2c(c1)Oc1cc(-c3ccsc3)ccc1C2=C1CC2CCC(C1)N2 [Cpd 55] | 9280 | 4720 | – | –
2 | CN(C)CCN(C)C(=O)c1ccc2c(c1)Oc1ccccc1C2=C1CC2CCC(C1)N2 [Cpd 56] | 28500 | 4930 | – | –
3 | COc1cccc(-c2ccc3c(c2)Oc2ccccc2C3=C2CC3CCC(C2)N3)c1 [Cpd 57] | 19700 | 6960 | – | –
4 | CN(CCO)C(=O)c1ccc2c(c1)Oc1ccccc1C2=C1CC2CCC(C1)N2 [Cpd 61, 9-(8-Aza-bicyclo[3.2.1]oct-3-ylidene)-9H-xanthene-3-carboxylic acid (2-hydroxy-ethyl)-methyl-amide] | 876 | 6.25 | – | –
5 | O=C(NC1CCC(C(F)(F)F)CC1)c1ccc2c(c1)Oc1ccccc1C2=C1CC2CCC(C1)N2 (stereo not shown) [Cpd 62] | – | – | 7400 | 309
6 | CS(=O)(=O)Nc1cccc(-c2ccc3c(c2)Oc2ccccc2C3=C2CC3CCC(C2)N3)c1 [Cpd 63] | 5120 | 161 | – | –
7 | O=C(NCC(F)(F)F)c1ccc2c(c1)Oc1ccccc1C2=C1CC2CCC(C1)N2 [Cpd 64] | 411 | 52 | – | –
8 | COc1cccc(C2CCCN(C(=O)c3ccc4c(c3)Oc3ccccc3C4=C3CC4CCC(C3)N4)C2)c1 (stereo not shown) [Cpd 65] | 317 | 88 | – | –
9 | CN(C(=O)c1ccc2c(c1)Oc1ccccc1C2=C1CC2CCC(C1)N2)c1ccc(F)cc1 [Cpd 66] | 935 | 93 | – | –
10 | CC(C)C[C@H](CO)NC(=O)c1ccc2c(c1)Oc1ccccc1C2=C1CC2CCC(C1)N2 [Cpd 67] | 1570 | 360 | – | –
11 | CN(C)C(=O)CN(C)C(=O)c1ccc2c(c1)Oc1ccccc1C2=C1CC2CCC(C1)N2 [Cpd 68] | – | – | 2390 | 8.5
12 | O=C(O)c1ccc2c(c1)Oc1ccccc1C2=C1CC2CCC(C1)N2 [Cpd 72] | – | – | 1960 | 216
13 | COC(=O)c1ccc2c(c1)Oc1ccccc1C2=C1CC2CCC(C1)N2 [Cpd 73] | – | – | 6340 | 1010
14 | CCOC(=O)N1C2CCC1CC(=C1c3ccccc3Oc3cc(C(=O)N(C)CCO)ccc31)C2 [Cpd 75] | – | – | 10000 | 4470
15 | COC(=O)c1ccc2c(c1)Sc1ccccc1C2=C1CC2CCC(C1)N2 [Cpd 76] | – | – | 4740 | 370
16 | N#Cc1ccc2c(c1)Oc1ccccc1C2=C1CC2CCC(C1)N2 [Cpd 77] | – | – | 2480 | 2710
17 | COC(=O)c1ccc2c(c1)Oc1cc(C(=O)OC)ccc1C2=C1CC2CCC(C1)N2 [Cpd 78, 9-(8-Aza-bicyclo[3.2.1]oct-3-ylidene)-9H-xanthene-3,6-dicarboxylic acid dimethyl ester] | 7000 | 1150 | – | –
18 | COc1cccc2c1Oc1cc(Br)ccc1C2=C1CC2CCC(C1)N2 [Cpd 79] | 4780 | 192 | – | –
19 | c1ccc2c(c1)Oc1cc(-c3nnn[nH]3)ccc1C2=C1CC2CCC(C1)N2 [Cpd 81] | – | – | 261 | 0.5
20 | c1ccc(Sc2ccc3c(c2)Sc2ccccc2C3=C2CC3CCC(C2)N3)cc1 [Cpd 83, 3-(3-Phenylsulfanyl-thioxanthen-9-ylidene)-8-aza-bicyclo[3.2.1]octane] | > 10000 | 8510 | – | –
21 | Brc1ccc2c(c1)Sc1ccccc1C2=C1CC2CCC(C1)N2 [Cpd 84, 3-(3-Bromo-thioxanthen-9-ylidene)-8-aza-bicyclo[3.2.1]octane] | > 10000 | 2900 | – | –
22 | N#Cc1ccc2c(c1)Sc1ccccc1C2=C1CC2CCC(C1)N2 [Cpd 85, 9-(8-Aza-bicyclo[3.2.1]oct-3-ylidene)-9H-thioxanthene-3-carbonitrile] | 2310 | 629 | – | –
23 | O=c1[nH]c(-c2ccc3c(c2)Oc2ccccc2C3=C2CC3CCC(C2)N3)ns1 [Cpd 95] | – | – | 4930 | 159
24 | CC(C)(CO)NC(=O)c1ccc2c(c1)Oc1ccccc1C2=C1CC2CCC(C1)N2 [Cpd 97] | – | – | 1900 | 266

Row | SMILES | Ki (mu opioid receptor; MOR Ki) [nM] | Ki (delta opioid receptor; DOR Ki) [nM] | Ki (mu opioid receptor; read-out: MOR Ki) [nM] | Ki (delta opioid receptor; read-out: DOR Ki) [nM]
25 | COc1cccc2c1Oc1cc(-c3cnc4ccccc4c3)ccc1C2=C1CC2CCC(C1)N2 [Cpd 104] | – | – | 1710 | 246
26 | COc1cccc2c1Oc1cc(-c3ccoc3)ccc1C2=C1CC2CCC(C1)N2 [Cpd 105] | – | – | 497 | 88
27 | COc1cccc2c1Oc1cc(-c3ccsc3)ccc1C2=C1CC2CCC(C1)N2 [Cpd 106] | – | – | 2740 | 281
28 | COc1cccc2c1Oc1cc(-c3ccncc3)ccc1C2=C1CC2CCC(C1)N2 [Cpd 107] | – | – | 597 | 106
29 | Cn1ccc(-c2ccc3c(c2)Oc2ccccc2C3=C2CC3CCC(C2)N3)n1 [Cpd 111] | 2640 | 220 | – | –
30 | c1cncc(-c2ccc3c(c2)Sc2ccccc2C3=C2CC3CCC(C2)N3)c1 [Cpd 112, 3-(3-Pyridin-3-yl-thioxanthen-9-ylidene)-8-aza-bicyclo[3.2.1]octane] | 1010 | 481 | – | –
31 | CC(=O)Nc1ccccc1-c1ccc2c(c1)Sc1ccccc1C2=C1CC2CCC(C1)N2 [Cpd 113] | 1520 | 90 | – | –
32 | CN1C2CCC1CC(=C1c3ccccc3Sc3cc(-c4cccnc4)ccc31)C2 [Cpd 114] | 109 | 108 | – | –
33 | c1cncc(-c2ccc3c(c2)Sc2ccccc2C3=C2CC3CCC(C2)N3Cc2ncc[nH]2)c1 [Cpd 115] | 60 | 91 | – | –
34 | c1cncc(-c2ccc3c(c2)Sc2ccccc2C3=C2CC3CCC(C2)N3Cc2ccoc2)c1 [Cpd 116, 8-Furan-3-ylmethyl-3-(3-pyridin-3-yl-thioxanthen-9-ylidene)-8-aza-bicyclo[3.2.1]octane] | – | 93 | 113 | –
35 | c1ccc(CN2C3CCC2CC(=C2c4ccccc4Sc4cc(-c5cccnc5)ccc42)C3)nc1 [Cpd 117] | 97 | 95 | – | –
36 | CC(=O)Nc1ccccc1-c1ccc2c(c1)Sc1ccccc1C2=C1CC2CCC(C1)N2C [Cpd 118] | – | – | 2070 | 612
37 | CC(=O)Nc1ccccc1-c1ccc2c(c1)Sc1ccccc1C2=C1CC2CCC(C1)N2Cc1ncc[nH]1 [Cpd 119] | – | – | 349 | 142
38 | CC(=O)Nc1ccccc1-c1ccc2c(c1)Sc1ccccc1C2=C1CC2CCC(C1)N2Cc1ccoc1 [Cpd 120] | – | 54 | 183 | –
39 | CC(=O)Nc1ccccc1-c1ccc2c(c1)Sc1ccccc1C2=C1CC2CCC(C1)N2Cc1ccccn1 [Cpd 121] | – | 3.7 | 137 | –
40 | CC(C)(C)OC(=O)N1C2CCC1CC(=C1c3ccccc3Oc3cc(C(=O)NCCO)ccc31)C2 [Cpd 122] | – | – | > 10000 | > 10000
41 | O=C(NCCO)c1ccc2c(c1)Oc1ccccc1C2=C1CC2CCC(C1)N2 [Cpd 123] | – | – | 1020 | 106
42 | O=C(N1C2CCC1CC(=C1c3ccccc3Oc3cc(-c4cccnc4)ccc31)C2)C(F)(F)F [Cpd 128] | – | – | > 10000 | > 10000
43 | O=C(N1C2CCC1CC(=C1c3ccccc3Oc3cc(-c4cccnc4)ccc31)C2)C(F)(F)F [Cpd 129] | – | – | > 10000 | > 10000
44 | CC(=O)Nc1ccccc1-c1ccc2c(c1)Oc1ccccc1C2=C1CC2CCC(C1)N2C(=O)C(F)(F)F [Cpd 130] | – | – | > 10000 | > 10000
45 | CC(=O)Nc1ccccc1-c1ccc2c(c1)Oc1ccccc1C2=C1CC2CCC(C1)N2C(=O)C(F)(F)F [Cpd 131] | – | – | > 10000 | > 10000
46 | COc1cccc2c1Oc1cc(-c3noc(=O)[nH]3)ccc1C2=C1CC2CCC(C1)N2 [Cpd 132, 3-[9-(8-Aza-bicyclo[3.2.1]oct-3-ylidene)-5-methoxy-9H-xanthen-3-yl]-4H-[1,2,4]oxadiazol-5-one] | 254 | 0.32 | – | –
47 | COc1cccc2c1Oc1cc(-c3noc(=S)[nH]3)ccc1C2=C1CC2CCC(C1)N2 [Cpd 133, 3-[9-(8-Aza-bicyclo[3.2.1]oct-3-ylidene)-5-methoxy-9H-xanthen-3-yl]-4H-[1,2,4]oxadiazole-5-thione] | 371 | 2.37 | – | –
